Source: US8840939B2, “Vigna unguiculata seed extract and compositions containing same” (Laboratoires Expanscience, priority 2009, dated 2014)

Assays:
IL1α = test: Release of IL1α by PMA-stimulated keratinocytes (ELISA); format: cell-based, Human; conditions: 10^−7 M dexamethasone, NCTC2544 keratinocytes, 0.1 μg/ml PMA 24 hours
Experimental: (§1) The anti-inflammatory effect of Vigna hydrolysate was evaluated by measuring the cytokines (IL1α, IL8) produced by keratinocytes in response to stimulation by PMA.
(§2) Human keratinocytes (NCTC2544 cell line) were preincubated for 24 hours with 0.05% (w/v) Vigna hydrolysate or the reference molecule (10^−7 M dexamethasone). The cells were then treated with 0.1 μg/ml PMA, always in the presence of Vigna hydrolysate or dexamethasone, for 24 hours. The quantities of IL1α and IL8 released in the culture medium were evaluated by ELISA.
(§3) The results were analyzed statistically by one-way analysis of variance (ANOVA) followed by Tukey's test:
(§4) The percentage of inhibition in relation to the stimulated control (PMA) was calculated.

IL8 = test: Release of IL8 by PMA-stimulated keratinocytes (ELISA); format: cell-based, Human; conditions: 10^−7 M dexamethasone, NCTC2544 keratinocytes, 0.1 μg/ml PMA 24 hours
Experimental: as §1, §2, §3, §4

elastin = test: Gene expression of elastin by fibroblasts (RT-PCR); format: cell-based; conditions: 5 ng/ml TGFβ1, normal human fibroblasts, 24 hours
Experimental: (§5) The effect of Vigna hydrolysate on the modulation of the extracellular matrix of the dermis was evaluated on a dermal fibroblast model wherein the gene expression of elastin and MMP1 was studied.
(§6) Normal human fibroblasts were treated for 24 hours with 0.01% and 0.05% (w/v) Vigna hydrolysate or with 5 ng/ml TGFβ1 (reference). The gene expression of elastin and MMP1 was analyzed by quantitative real-time RT-PCR.
(§7) The results were analyzed statistically by one-way analysis of variance (ANOVA) followed by Dunnett's test:
(§8) The level of gene expression was expressed in relative quantity (RQ) and the effect of the treatment in relation to the control cells in percentage of increase or inhibition.

MMP1 = test: Gene expression of MMP1 by fibroblasts (RT-PCR); format: cell-based; conditions: 5 ng/ml TGFβ1, normal human fibroblasts, 24 hours
Experimental: as §5, §6, §7, §8

Compound: C[C@@H]1C[C@H]2[C@@H]3CCC4=CC(=O)C=C[C@]4(C)[C@@]3(F)[C@@H](O)C[C@]2(C)[C@@]1(O)C(=O)CO [dexamethasone]
- IL1α (IL1α): 14.0 ± 3.5 pg/mL
- inhibition at 0.1 µM (IL1α; Homo sapiens, NCTC-2544, read-out: IL1α, percentage of inhibition in relation to the stimulated control (PMA) (converted)): 82%
- IL8 (IL8): 6.0 ± 0.2 ng/mL
- inhibition at 0.1 µM (IL8; Homo sapiens, NCTC-2544, read-out: IL8, percentage of inhibition in relation to the stimulated control (PMA) (converted)): 81%

Compound: TGFβ1: 5 ng/ml TGFβ1 (reference)
- ELASTIN gene expression, percentage of increase in relation to the control cells (elastin): +559%
- ELASTIN gene expression, relative quantity (RQ) (elastin): 6.59
- MMP1 gene expression, percentage of inhibition in relation to the control cells (MMP1): −88%
- MMP1 gene expression, relative quantity (RQ) (MMP1): 0.12
